Test results taken from patent publication US20110070294A1, “Methods for the Administration of Drugs Using Liposomes” (priority 2009, published 2011).

Tested on: bovine blood treated with heparin
Assay: Hemolysis of heparin-treated bovine blood, absorbance of supernatant at 398 nm
Settings: sample added to 1.4 mL heparinized bovine blood, room temperature, 10 minutes
Method: 100 μL of a 5 mg/mL lyophilized docetaxel preparation (50 mM sodium oleate reconstituted with 6% liposome (Doc-100), 200 μL of 5 mg/mL lyophilized docetaxel containing 50 mM sodium oleate and reconstituted with 6% liposome (Doc-200), […] of placebo containing 50 mM sodium oleate and reconstituted with 6% liposome (Placebo-100), 200 μL of placebo containing 50 mM sodium oleate and reconstituted with 6% liposome (Placebo-200), […] of Reverse osmotic deionized water (RODI (positive control)), 50 n1, of 50 mM sodium oleate (Na oleate-50) in isotonic 2.5% glycerol or 100 μL of 50 mM sodium oleate (Na oleate-100), or 200 μL of phosphate buffered saline (negative control)) was added to 1.4 mL of bovine blood treated with heparin. Doc-100 and Doc-200 were prepared using procedures similar to those in Examples 1 and 2. The samples were incubated at room temperature for 10 minutes, and then centrifuged at 8000 rpm for 20 minutes. The supernatant was used for spectral analysis. The absorbance of the samples was measured by UV-scanning the samples at wavelengths from 190 nm to 810 nm. The high absorbance at 398 nm is due to hemolysis of the blood.

With CCCCCCCC/C=C\CCCCCCCC(=O)[O-].[Na+] [Na oleate-50, sodium oleate] the “hemolysis (absorbance at 398 nm, FIG. 1)” value was “complete hemolysis”.
